Assay results published in patent US10508077B2 (FORMA Therapeutics, Inc., priority 2015, dated 2019).

Assays:
[1] = biological target: T1, Full length human recombinant HDAC8 protein (Homo sapiens, UniProt Q9BY41); experiment: In vitro histone deacetylase assay: enzymatic HDAC8 assay, electrophoretic mobility shift; format: biochemical; conditions: substrate RHKK(Ac)-NH2, 1 nM enzyme, compounds listed under IC50 range headings
T1 construct: Full length human recombinant HDAC8 protein was expressed in baculoviral system; made in house
T1 sequence (Q9BY41 1-377): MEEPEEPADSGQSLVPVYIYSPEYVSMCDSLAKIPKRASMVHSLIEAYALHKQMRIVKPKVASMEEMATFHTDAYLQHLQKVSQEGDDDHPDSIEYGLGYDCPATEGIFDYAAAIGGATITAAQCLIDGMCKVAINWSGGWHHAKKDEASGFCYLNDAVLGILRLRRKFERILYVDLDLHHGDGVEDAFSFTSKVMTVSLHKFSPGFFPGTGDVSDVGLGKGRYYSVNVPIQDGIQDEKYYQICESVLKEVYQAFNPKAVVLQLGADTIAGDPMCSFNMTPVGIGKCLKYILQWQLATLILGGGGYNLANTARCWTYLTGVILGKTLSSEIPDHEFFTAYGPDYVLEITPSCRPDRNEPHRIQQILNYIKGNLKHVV
In short: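 Baculovirus-expressed full-length human HDAC8 (1 nM) deacetylated 2 µM fluorescent RHKK(Ac)-NH2 peptide in pH 7.5 HEPES, 1% DMSO, at 25 °C, with 12 compound concentrations at 3× spacing. SDS-quenched; product and substrate resolved by microfluidic electrophoresis, P/(S+P) converted to percent inhibition, and IC50 obtained by 4-parameter fit.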

[2] = biological target: T2, Recombinant N-terminal GST tag full-length human HDAC8 (Homo sapiens, UniProt Q9BY41); experiment: HDAC8 probe binding assay, time resolved fluorescence (TRF); conditions: fluorescein labeled pan-HDAC inhibitor probe, 16 hours incubation, compounds listed under IC50 range headings
T2 construct: Recombinant N-terminal GST tag full-length human HDAC8; purchased SignalChem H90-30G-1000; host or cells: Sf9 insect cells (baculovirus)
T2 sequence (Q9BY41 1-377): T1 sequence (Q9BY41 1-377)
In short: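 TR-FRET probe displacement using GST-tagged full-length human HDAC8 (Sf9-expressed, 2.5 nM) with 1.5 nM fluorescein-labelled pan-HDAC inhibitor probe and anti-GST terbium, in HEPES pH 7.5 buffer with GSH, BGG, Triton X-100. Compounds 25 μM–1.3 nM, 10-point; 16 h at room temperature. IC50 from 4-parameter fit of % inhibition versus no-enzyme and DMSO controls.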

Row | Compound | IC50 [1] | IC50 [2]
1 | O=C(/C=C/c1ccccc1N1CCN(C(=O)c2ccc3[nH]ccc3c2)CC1)NO [Example I-208, (E)-3-(2-(4-(1H-indole-5-carbonyl)piperazin-1-yl)phenyl)-N-hydroxyacrylamide] | < 1000 nM | ≤ 1000 nM
2 | Cn1ccc(S(=O)(=O)NC2CCN(c3ccccc3/C=C/C(=O)NO)CC2)n1 [Example I-219, (E)-N-hydroxy-3-(2-(4-((1-methyl-1H-pyrazole)-3-sulfonamido)piperidin-1-yl)phenyl)acrylamide] | < 1000 nM | ≤ 1000 nM
3 | Cn1ccnc1S(=O)(=O)N1CCN(c2ccccc2/C=C/C(=O)NO)CC1 [Example I-252, (E)-N-hydroxy-3-(2-(4-((1-methyl-1H-imidazol-2-yl)sulfonyl)piperazin-1-yl)phenyl)acrylamide] | < 1000 nM | ≤ 1000 nM
4 | O=C(/C=C/c1ccccc1N1CCC(c2ccccc2)C1=O)NO (centres unmarked) [Example I-262, (E)-N-hydroxy-3-(2-(2-oxo-3-phenylpyrrolidin-1-yl)phenyl)acrylamide] | < 1000 nM | ≤ 1000 nM
5 | CC(C)(C)OC(=O)N1CCN(c2ccccc2/C=C/C(=O)NO)C(=O)C1 [Example I-263, tert-butyl (E)-4-(2-(3-(hydroxyamino)-3-oxoprop-1-en-1-yl)phenyl)-3-oxopiperazine-1-carboxylate] | < 1000 nM | ≤ 1000 nM
6 | Cc1oc(C(C)(C)C)cc1C(=O)Nc1ccccc1/C=C/C(=O)NO [Example I-265, (E)-5-(tert-butyl)-N-(2-(3-(hydroxyamino)-3-oxoprop-1-en-1-yl)phenyl)-2-methylfuran-3-carboxamide] | < 1000 nM | ≤ 1000 nM
7 | O=C(/C=C/c1ccccc1NC(=O)c1cnn(-c2ccc(Cl)cc2)c1C(F)(F)F)NO [Example I-266, (E)-1-(4-chlorophenyl)-N-(2-(3-(hydroxyamino)-3-oxoprop-1-en-1-yl)phenyl)-5-(trifluoromethyl)-1H-pyrazole-4-carboxamide] | < 1000 nM | ≤ 1000 nM
8 | O=C(/C=C/c1ccccc1NC(=O)c1ccccc1Oc1ccc(Cl)cc1)NO [Example I-268, (E)-2-(4-chlorophenoxy)-N-(2-(3-(hydroxyamino)-3-oxoprop-1-en-1-yl)phenyl)benzamide] | < 1000 nM | ≤ 1000 nM
9 | CCCn1c(C(=O)Nc2ccccc2/C=C/C(=O)NO)cc2ccccc21 [Example I-270, (E)-N-(2-(3-(hydroxyamino)-3-oxoprop-1-en-1-yl)phenyl)-1-propyl-1H-indole-2-carboxamide] | < 1000 nM | ≤ 1000 nM
10 | CCn1nc(C)cc1C(=O)Nc1ccccc1/C=C/C(=O)NO [Example I-274, (E)-1-ethyl-N-(2-(3-(hydroxyamino)-3-oxoprop-1-en-1-yl)phenyl)-3-methyl-1H-pyrazole-5-carboxamide] | < 1000 nM | ≤ 1000 nM
11 | Cc1onc(-c2c(Cl)cccc2Cl)c1C(=O)Nc1ccccc1/C=C/C(=O)NO [Example I-275, (E)-3-(2,6-dichlorophenyl)-N-(2-(3-(hydroxyamino)-3-oxoprop-1-en-1-yl)phenyl)-5-methylisoxazole-4-carboxamide] | < 1000 nM | ≤ 1000 nM
12 | CCC(Oc1ccccc1)C(=O)Nc1ccccc1/C=C/C(=O)NO (centres unmarked) [Example I-281, (E)-N-(2-(3-(hydroxyamino)-3-oxoprop-1-en-1-yl)phenyl)-2-phenoxybutanamide] | < 1000 nM | ≤ 1000 nM
13 | O=C(/C=C/c1ccccc1NC(=O)[C@@H]1C[C@H]2CC[C@@H]1O2)NO [Example I-282, (1S,2R,4R)-N-(2-((E)-3-(hydroxyamino)-3-oxoprop-1-en-1-yl)phenyl)-7-oxabicyclo[2.2.1]heptane-2-carboxamide] | < 1000 nM | ≤ 1000 nM
14 | Cc1cc(C)n(Cc2ccc(C(=O)Nc3ccccc3/C=C/C(=O)NO)cc2)n1 [Example I-288, (E)-4-((3,5-dimethyl-1H-pyrazol-1-yl)methyl)-N-(2-(3-(hydroxyamino)-3-oxoprop-1-en-1-yl)phenyl)benzamide] | < 1000 nM | ≤ 1000 nM
15 | COc1ccc(CN2CCN(c3ccccc3/C=C/C(=O)NO)C(=O)C2)cc1 [Example I-293, (E)-N-hydroxy-3-(2-(4-(4-methoxybenzyl)-2-oxopiperazin-1-yl)phenyl)acrylamide] | < 1000 nM | ≤ 1000 nM
16 | Cc1cc(C(=O)N2CCN(c3ccccc3/C=C/C(=O)NO)CC2)n(C)n1 [Example I-298, (E)-3-(2-(4-(1,3-dimethyl-1H-pyrazole-5-carbonyl)piperazin-1-yl)phenyl)-N-hydroxyacrylamide] | < 1000 nM | ≤ 1000 nM

Row | Compound | IC50 [1] | IC50 [2]
17 | O=C(/C=C/c1ccccc1NC(=O)c1ccccc1Oc1ccc(C(F)(F)F)cc1)NO [Example I-303, (E)-N-(2-(3-(hydroxyamino)-3-oxoprop-1-en-1-yl)phenyl)-2-(4-(trifluoromethyl)phenoxy)benzamide] | < 1000 nM | ≤ 1000 nM
18 | COc1ccccc1Oc1ccccc1C(=O)Nc1ccccc1/C=C/C(=O)NO [Example I-304, (E)-N-(2-(3-(hydroxyamino)-3-oxoprop-1-en-1-yl)phenyl)-2-(2-methoxyphenoxy)benzamide] | < 1000 nM | ≤ 1000 nM
19 | O=C(/C=C/c1ccccc1NC(=O)c1ccccc1Oc1ccc(F)cc1)NO [Example I-306, (E)-2-(4-fluorophenoxy)-N-(2-(3-(hydroxyamino)-3-oxoprop-1-en-1-yl)phenyl)benzamide] | < 1000 nM | ≤ 1000 nM
20 | CC(=O)NC1CCN(c2ccccc2/C=C/C(=O)NO)C1 (centres unmarked) [Example I-307, (E)-3-(2-(3-acetamidopyrrolidin-1-yl)phenyl)-N-hydroxyacrylamide] | < 1000 nM | ≤ 1000 nM
21 | O=C(/C=C/c1ccccc1N1CC(c2ccccc2)CC1=O)NO (centres unmarked) [Example I-309, (E)-N-hydroxy-3-(2-(2-oxo-4-phenylpyrrolidin-1-yl)phenyl)acrylamide] | < 1000 nM | ≤ 1000 nM
22 | CC(C)(C)OC(=O)N1CCC2(CC1)CCN(c1ccccc1/C=C/C(=O)NO)C2=O [Example I-310, tert-butyl (E)-2-(2-(3-(hydroxyamino)-3-oxoprop-1-en-1-yl)phenyl)-1-oxo-2,8-diazaspiro[4.5]decane-8-carboxylate] | < 1000 nM | ≤ 1000 nM
23 | O=C(/C=C/c1ccccc1NC(=O)c1cnc(-c2ccccc2F)s1)NO [Example I-311, (E)-2-(2-fluorophenyl)-N-(2-(3-(hydroxyamino)-3-oxoprop-1-en-1-yl)phenyl)thiazole-5-carboxamide] | < 1000 nM | ≤ 1000 nM
24 | O=C(/C=C/c1ccccc1NC(=O)c1cnc(-c2ccccn2)s1)NO [Example I-312, (E)-N-(2-(3-(hydroxyamino)-3-oxoprop-1-en-1-yl)phenyl)-2-(pyridin-2-yl)thiazole-5-carboxamide] | < 1000 nM | ≤ 1000 nM
25 | O=C(/C=C/c1ccccc1NC(=O)c1ccncc1N1CCOCC1)NO [Example I-313, (E)-N-(2-(3-(hydroxyamino)-3-oxoprop-1-en-1-yl)phenyl)-3-morpholinoisonicotinamide] | < 1000 nM | ≤ 1000 nM
26 | O=C(/C=C/c1ccccc1NC(=O)c1ccccc1Oc1cccnc1)NO [Example I-314, (E)-N-(2-(3-(hydroxyamino)-3-oxoprop-1-en-1-yl)phenyl)-2-(pyridin-3-yloxy)benzamide] | < 1000 nM | ≤ 1000 nM
27 | Cc1nc(C)c(CN2CCN(c3ccccc3/C=C/C(=O)NO)CC2)s1 [Example I-315, (E)-3-(2-(4-((2,4-dimethylthiazol-5-yl)methyl)piperazin-1-yl)phenyl)-N-hydroxyacrylamide] | < 1000 nM | ≤ 1000 nM
28 | Cc1cc(CN2C[C@@H]3C[C@H]2CN3c2ccccc2/C=C/C(=O)NO)n(C)n1 [Example I-317, (E)-3-(2-((1S,4S)-5-((1,3-dimethyl-1H-pyrazol-5-yl)methyl)-2,5-diazabicyclo[2.2.1]heptan-2-yl)phenyl)-N-hydroxyacrylamide] | < 1000 nM | ≤ 1000 nM
29 | O=C(/C=C/c1ccccc1NC(=O)c1cnc(N2CCOCC2)s1)NO [Example I-319, (E)-N-(2-(3-(hydroxyamino)-3-oxoprop-1-en-1-yl)phenyl)-2-morpholinothiazole-5-carboxamide] | < 1000 nM | ≤ 1000 nM
30 | Cc1onc(-c2ccccc2Cl)c1C(=O)Nc1ccccc1/C=C/C(=O)NO [Example I-320, (E)-3-(2-chlorophenyl)-N-(2-(3-(hydroxyamino)-3-oxoprop-1-en-1-yl)phenyl)-5-methylisoxazole-4-carboxamide] | < 1000 nM | ≤ 1000 nM
31 | O=C(/C=C/c1ccccc1N1CCN(C(=O)C2(c3cccnc3)CC2)CC1)NO [Example I-321, (E)-N-hydroxy-3-(2-(4-(1-(pyridin-3-yl)cyclopropane-1-carbonyl)piperazin-1-yl)phenyl)acrylamide] | < 1000 nM | ≤ 1000 nM
